Source: US11945822B2, “Pyrazolo-triazine and/or pyrazolo-pxrimidine derivatives as selective inhibitor of cyclin dependent kinase” (QURIENT CO., LTD., priority 2018, dated 2024)

Tests used:
CDK1/Cyclin B = molecular target: T1, CDK1/Cyclin B (Homo sapiens, UniProt P06493); assay: Enzymatic assay for CDK1 (FRET based LANCE Ultra kinase assay); format: biochemical; details: read-out: CDK1 enzymatic activity (IC50 range)
T1 construct: purchased Invitrogen PR4768C
Summary of the method: (§1)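 Each CDK complex ([…]) phosphorylated 68 nM ULight-MBP peptide with ATP at Km for 60 min at 23° C., against 8 compound doses (4-fold dilutions). EDTA/Eu-anti-phospho-MBP detection, 60 min, then TR-FRET emission at 615 and 665 nm.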

CDK2/Cyclin A = molecular target: T2, CDK2/Cyclin A (Homo sapiens, UniProt P24941); assay: Enzymatic assay for CDK2 (FRET based LANCE Ultra kinase assay); format: biochemical; details: read-out: CDK2 enzymatic activity (IC50 range)
T2 construct: purchased Invitrogen PV6290
Summary of the method: as §1

MOLT-4 = assay: Cellular MOLT-4 viability assay (CellTiter-Glo, 72 hours); format: cell-based; details: Homo sapiens, MOLT4 viability assay
Method: All cell lines were routinely tested for mycoplasma.
The effect of the CDK7 inhibitor to inhibit the growth of target cancer cells was evaluated through the 72 hours time period of viability assay. Briefly, the candidate cell line ware plated in 96 well plate at the following density of cells respectively. […] DMSO solvent without compound served as a control and final DMSO concentration less than 0.1%. After 72 hours of incubation at 37° C., 5% CO2 incubator, cells were analyzed for the viability using the CellTiter-Glo Luminescent Cell Viability Assay (Promega, Cat #G7570). All viability assays were performed in duplicate and Luminescence was read using an Envision (Perkin Elmer, USA). Data was analyzed using XLfit software.

CDK7/Cyclin H/MNAT1 = molecular target: T3, CDK7/Cyclin H/MNAT1 (Homo sapiens, UniProt P50613); assay: Enzymatic assay for CDK7 (FRET based LANCE Ultra kinase assay); format: biochemical; details: for IC50: read-out: CDK7 enzymatic activity (IC50 range)
T3 construct: purchased Invitrogen PR6749B
T3 sequence (P50613 whole entry): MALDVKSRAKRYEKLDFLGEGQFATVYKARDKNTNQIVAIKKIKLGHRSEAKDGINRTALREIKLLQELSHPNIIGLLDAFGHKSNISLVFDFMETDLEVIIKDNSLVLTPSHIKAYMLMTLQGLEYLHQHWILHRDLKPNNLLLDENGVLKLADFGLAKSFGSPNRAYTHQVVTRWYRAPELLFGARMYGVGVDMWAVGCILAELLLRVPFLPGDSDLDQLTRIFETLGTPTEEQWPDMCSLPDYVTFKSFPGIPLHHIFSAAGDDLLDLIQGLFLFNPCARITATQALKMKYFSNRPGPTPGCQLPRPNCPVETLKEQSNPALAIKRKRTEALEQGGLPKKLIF
T3 sequence (P51946 whole entry partner): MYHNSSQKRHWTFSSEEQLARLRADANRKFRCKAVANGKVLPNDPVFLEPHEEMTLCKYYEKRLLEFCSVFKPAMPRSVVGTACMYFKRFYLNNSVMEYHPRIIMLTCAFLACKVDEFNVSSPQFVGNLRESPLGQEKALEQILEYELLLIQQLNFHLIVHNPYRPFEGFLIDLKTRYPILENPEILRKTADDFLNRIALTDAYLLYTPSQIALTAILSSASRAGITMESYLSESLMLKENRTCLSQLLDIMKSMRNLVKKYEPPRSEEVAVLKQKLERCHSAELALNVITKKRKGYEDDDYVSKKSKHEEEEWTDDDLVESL
T3 sequence (P51948 whole entry partner): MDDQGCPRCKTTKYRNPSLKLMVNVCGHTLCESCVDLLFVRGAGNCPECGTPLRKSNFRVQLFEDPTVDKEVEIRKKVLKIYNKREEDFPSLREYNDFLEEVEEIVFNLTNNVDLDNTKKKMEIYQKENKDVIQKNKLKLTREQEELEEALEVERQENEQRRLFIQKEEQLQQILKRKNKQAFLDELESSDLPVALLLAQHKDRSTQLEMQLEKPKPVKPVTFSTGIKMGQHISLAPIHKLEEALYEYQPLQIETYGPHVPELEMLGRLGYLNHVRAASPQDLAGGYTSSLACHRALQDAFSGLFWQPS
Summary of the method: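 LANCE Ultra TR-FRET kinase assay using a ULight-labeled peptide substrate and a Eu-labeled anti-phospho antibody, with ATP at its Km. Purified CDK/cyclin complex was added to compound after brief centrifugation.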

CDK5/p25 = molecular target: T4, CDK5/p25 (Homo sapiens, UniProt Q00535); assay: Enzymatic assay for CDK5 (FRET based LANCE Ultra kinase assay); format: biochemical; details: read-out: CDK5 enzymatic activity (IC50 range)
T4 construct: purchased Invitrogen PR8543B
T4 sequence (Q00535 whole entry): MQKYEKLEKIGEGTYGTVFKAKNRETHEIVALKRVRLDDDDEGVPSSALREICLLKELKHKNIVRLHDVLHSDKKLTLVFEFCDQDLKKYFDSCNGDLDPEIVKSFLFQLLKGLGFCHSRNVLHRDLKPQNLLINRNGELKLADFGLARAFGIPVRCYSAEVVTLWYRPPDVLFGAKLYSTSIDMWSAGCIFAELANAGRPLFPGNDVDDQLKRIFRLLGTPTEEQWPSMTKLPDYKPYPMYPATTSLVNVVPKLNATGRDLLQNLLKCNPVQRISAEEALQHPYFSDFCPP
T4 sequence (Q15078 99-307 partner limits assumed): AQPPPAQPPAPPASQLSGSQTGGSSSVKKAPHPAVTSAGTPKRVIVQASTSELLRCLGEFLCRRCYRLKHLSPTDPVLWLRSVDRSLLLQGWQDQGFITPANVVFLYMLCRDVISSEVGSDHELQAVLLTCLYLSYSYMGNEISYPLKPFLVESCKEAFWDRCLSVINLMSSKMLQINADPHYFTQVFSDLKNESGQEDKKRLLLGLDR
Summary of the method: as §1

H460 = assay: Cellular H460 viability assay (CellTiter-Glo, 72 hours); format: cell-based; details: Homo sapiens, NCI-H460
Summary of the method: (§2)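 Steps: seed cells at per-line density; add compound, DMSO vehicle kept under 0.1% final; incubate 72 h, 37 °C, 5% CO2; lyse with CellTiter-Glo and read luminescence; run in duplicate.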

HCT116 = assay: Cellular HCT116 viability assay (CellTiter-Glo, 72 hours); format: cell-based; details: Homo sapiens, HCT-116
Summary of the method: as §2

MV4-11 = assay: Cellular MV4-11 viability assay (CellTiter-Glo, 72 hours); format: cell-based; details: Homo sapiens
Summary of the method: as §2

T1 sequence (P06493 whole entry): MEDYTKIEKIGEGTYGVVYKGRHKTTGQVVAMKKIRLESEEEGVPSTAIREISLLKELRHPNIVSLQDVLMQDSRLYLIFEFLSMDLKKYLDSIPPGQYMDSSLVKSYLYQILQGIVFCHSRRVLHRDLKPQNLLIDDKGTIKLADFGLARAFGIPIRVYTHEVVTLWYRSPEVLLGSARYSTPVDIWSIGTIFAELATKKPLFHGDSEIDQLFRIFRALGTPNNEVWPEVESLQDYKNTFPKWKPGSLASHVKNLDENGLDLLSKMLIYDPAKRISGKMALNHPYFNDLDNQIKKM
T1 sequence (P14635 whole entry partner): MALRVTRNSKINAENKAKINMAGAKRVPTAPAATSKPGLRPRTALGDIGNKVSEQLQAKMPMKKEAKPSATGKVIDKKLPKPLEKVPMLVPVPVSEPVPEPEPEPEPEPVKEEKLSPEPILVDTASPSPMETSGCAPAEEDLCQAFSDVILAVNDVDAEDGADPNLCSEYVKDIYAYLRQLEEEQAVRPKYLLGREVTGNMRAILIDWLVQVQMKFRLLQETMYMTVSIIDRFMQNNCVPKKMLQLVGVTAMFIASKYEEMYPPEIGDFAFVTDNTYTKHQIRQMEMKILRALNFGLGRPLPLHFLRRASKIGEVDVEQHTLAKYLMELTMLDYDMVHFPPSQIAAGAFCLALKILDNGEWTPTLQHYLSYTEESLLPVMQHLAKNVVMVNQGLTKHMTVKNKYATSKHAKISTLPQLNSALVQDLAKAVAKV

Structure (SMILES)	IC50 (CDK1/Cyclin B) [µM]	IC50 (CDK2/Cyclin A) [µM]	IC50 (MOLT-4) [µM]	CDK1/CDK7: Selectivity of CDK7 inhibition over CDK1 inhibition (CDK7/Cyclin H/MNAT1)	CDK2/CDK7: Selectivity of CDK7 inhibition over CDK2 inhibition (CDK7/Cyclin H/MNAT1)	CDK5/CDK7: Selectivity of CDK7 inhibition over CDK5 inhibition (CDK7/Cyclin H/MNAT1)	IC50 (CDK7/Cyclin H/MNAT1) [µM]	IC50 (CDK5/p25) [µM]	IC50 (H460) [µM]	IC50 (HCT116) [µM]	IC50 (MV4-11) [µM]
CC(C)c1cnn2c(NCc3ccccc3-c3ccc4ccccc4[n+]3[O-])nc(N3CCC(N)CC3)nc12 [Compound 81]	> 1	> 1	> 10	A (A=greater than 200 fold)	A (A=greater than 200 fold)	A (A=greater than 200 fold)	< 0.1	> 1	–	–	–
CC(C)c1cnn2c(NCc3ccccc3Oc3ccc(NC(=O)CCCN(C)C)cc3)nc(N3CCC(N)CC3)nc12 [Compound 91]	0.1 to 1	0.1 to 1	1 to 10	A (A=greater than 200 fold)	B (B=less than 200 fold, but greater than 20 fold)	B (B=less than 200 fold, but greater than 20 fold)	< 0.1	0.1 to 1	–	–	–
NC1CCN(c2nc(NCc3ccccc3-n3cccn3)n3ncc(I)c3n2)CC1 [Compound 36]	0.1 to 1	0.1 to 1	1 to 10	B (B=less than 200 fold, but greater than 20 fold)	C (C=less than 20 fold)	C (C=less than 20 fold)	< 0.1	< 0.1	–	–	–
CC(C)c1cnn2c(NCc3ccccc3Oc3cccc(NC(=O)CCCN(C)C)c3)nc(N3CCC(N)CC3)nc12 [Compound 82]	–	–	1 to 10	–	–	–	–	–	–	–	–
CC(C)c1cnn2c(NCc3ccccc3-n3cccn3)nc(Nc3ccc(C4CCNCC4)cn3)nc12 [Compound 169]	> 1	> 1	1 to 10	A (A=greater than 200 fold)	B (B=less than 200 fold, but greater than 20 fold)	B (B=less than 200 fold, but greater than 20 fold)	< 0.1	> 1	–	–	–
CC(C)c1cnn2c(NCc3cccc(N4CCN(C)CC4)c3)nc(N3CCC(N)CC3)nc12 [Compound 83]	> 1	0.1 to 1	1 to 10	A (A=greater than 200 fold)	A (A=greater than 200 fold)	B (B=less than 200 fold, but greater than 20 fold)	< 0.1	0.1 to 1	–	–	–
CCC(=O)Nc1cccc(Oc2cccc(CNc3nc(N4CCC(N)CC4)nc4c(C(C)C)cnn34)c2)c1 [Compound 86]	0.1 to 1	0.1 to 1	1 to 10	B (B=less than 200 fold, but greater than 20 fold)	B (B=less than 200 fold, but greater than 20 fold)	C (C=less than 20 fold)	< 0.1	< 0.1	–	–	–
NC1CCN(c2nc(NCc3ccccc3-n3cccn3)n3ncc(F)c3n2)CC1 [Compound 37]	–	–	> 10	–	–	–	–	–	–	–	–
CC(C)c1cnn2c(NCc3cccc(N4CCN(C(=O)CCCN(C)C)CC4)c3)nc(N3CCC(N)CC3)nc12 [Compound 85]	–	–	> 10	–	–	–	–	–	–	–	–
CC(C)c1cnn2c(NCc3cccc(Oc4cccc(NC(=O)CCCN(C)C)c4)c3)nc(N3CCC(N)CC3)nc12 [Compound 84]	–	–	1 to 10	–	–	–	–	–	–	–	–
CC(C)c1cnn2c(NCc3ccccc3-n3cccn3)nc(Oc3ccc(N4CCCC4)cc3)nc12 [Compound 162]	–	–	> 10	–	–	–	–	–	–	–	–
CC(C)c1cnn2c(NCc3c(Cl)cccc3C(C)(C)O)nc(N3CCC(N)CC3)nc12 [Compound 239]	> 1	> 1	–	A (A=greater than 200 fold)	A (A=greater than 200 fold)	A (A=greater than 200 fold)	< 0.1	> 1	1 to 10	1 to 10	1 to 10
CC(C)c1cnn2c(NCc3ccccc3-n3ccc(C(C)(C)O)n3)nc(N3CCC(O)(CN)CC3)nc12 [Compound 228]	> 1	> 1	–	A (A=greater than 200 fold)	A (A=greater than 200 fold)	A (A=greater than 200 fold)	< 0.1	0.1 to 1	< 1	< 1	< 1
CC(C)c1cnn2c(NCc3c(Cl)cccc3-n3ccc(N4CCOCC4)n3)nc(N3CCC(N)CC3)nc12 [Compound 202]	> 1	> 1	–	A (A=greater than 200 fold)	A (A=greater than 200 fold)	A (A=greater than 200 fold)	< 0.1	> 1	< 1	< 1	< 1
CC(C)c1cnn2c(NCc3ccccc3-n3cc(N4CCN(C)CC4)cn3)nc(N3CCC(N)CC3)nc12 [Compound 179]	0.1 to 1	0.1 to 1	–	B (B=less than 200 fold, but greater than 20 fold)	B (B=less than 200 fold, but greater than 20 fold)	B (B=less than 200 fold, but greater than 20 fold)	< 0.1	0.1 to 1	< 1	< 1	< 1
CC(C)c1cnn2c(NCc3ccccc3-n3ccc(C(C)(C)O)n3)nc(NCC3CCNCC3)nc12 [Compound 224]	> 1	> 1	–	A (A=greater than 200 fold)	A (A=greater than 200 fold)	A (A=greater than 200 fold)	< 0.1	> 1	< 1	< 1	< 1
CC(=O)NC1CCN(c2nc(NCc3c(Cl)cccc3-n3ccc(C(C)(C)O)n3)n3ncc(C(C)C)c3n2)CC1 [Compound 199]	> 1	> 1	–	A (A=greater than 200 fold)	A (A=greater than 200 fold)	A (A=greater than 200 fold)	< 0.1	> 1	< 1	< 1	1 to 10
